The values that follow come from ChEMBL document CHEMBL1201862, “PubChem BioAssay data set” (2004).

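Cells were grown in 96-well plates and exposed to each compound for 48 hours at five concentrations; endpoints were interpolated linearly between bracketing concentrations, or set to the highest concentration if not reached. At the GI50, growth is halved.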 Calls of active or inactive are those of the source. Cut-off read from the data, not from the text of the source: active = GI50 up to about 1.1 µM and inactive = higher.

Some test systems named below: SNB-75; SF-295; HOP-92; SN12C; OVCAR-8; SK-MEL-28; HCC 2998; 786-0; NCI-H460; NCI-H23; EKVX; SF-268; U-251; TK-10; ACHN; HCT-116.
Common to all, as to experiment: inhibition of tumour cell growth, NCI panel, 48 h

For the molecule `Cc1nc(-c2cccnc2)sc1C(=O)/C=C/c1cccc([N+](=O)[O-])c1`, the GI50 in the assay on SNB-75, with SF-295, in the assay with HOP-92, in the assay on SN12C, in the assay on OVCAR-8 and with SK-MEL-28 was > 100 µM (inactive) in each case. In addition, the GI50 with HCC 2998, with 786-0, in the assay with NCI-H460, with NCI-H23, in the assay on EKVX and with SF-268 was > 100 µM (inactive) in each case. Moreover, the GI50 with U-251 and in the assay with TK-10 was > 100 µM (inactive) throughout.

Regarding `C=CCCC(OCOCCOC)c1cc(C)c(O[Si](C)(C)C(C)(C)C)c(C)c1` (configuration not stated), the GI50 in the assay with SNB-75 is 15.6 µM (inactive); in the assay with SF-295, 17.3 µM (inactive); in the assay with SN12C, 15.6 µM (inactive); in the assay with OVCAR-8, 19.3 µM (inactive); with SK-MEL-28 it was 19.5 µM (inactive); with HCC 2998 it was 14 µM (inactive). Also, the GI50 in the assay on 786-0 was 14.9 µM (inactive); in the assay on NCI-H460, 13.9 µM (inactive); in the assay with NCI-H23 it was 14.5 µM (inactive); with EKVX it was 32.2 µM (inactive); in the assay with SF-268, 15.2 µM (inactive); with ACHN it was 13.2 µM (inactive). Moreover, the figures for the GI50 with U-251 and in the assay with TK-10 were 14.3 µM (inactive) and 22 µM (inactive), respectively.

Consider `O=C(N/N=C(\c1nc2ccc(Cl)cc2nc1O)C(O)c1ccccc1Cl)c1ccncc1` (configuration not stated), for which the GI50 in the assay on SNB-75, in the assay on HCT-116, in the assay with SF-295, with HOP-92, in the assay on SK-MEL-28 and with HCC 2998 was > 100 µM (inactive) in each case. Further, the GI50 with 786-0, in the assay on NCI-H460, in the assay with NCI-H23, in the assay on EKVX, with SF-268 and in the assay with ACHN was > 100 µM (inactive) each time. Also, the GI50 in the assay with TK-10 is > 100 µM (inactive).

Consider `CN(C)CC1(C)CC/C(=C\c2ccc(Cl)cc2)C1=O` (configuration not stated), for which the GI50 is 45 µM (inactive) in the assay on SNB-75; 34.3 µM (inactive) in the assay with HCT-116; 67.1 µM (inactive) in the assay with SF-295; 59 µM (inactive) in the assay with HOP-92; 51.3 µM (inactive) in the assay on SN12C; 40.1 µM (inactive) in the assay with OVCAR-8. For the same molecule, the GI50 in the assay with SK-MEL-28 is > 100 µM (inactive); in the assay with HCC 2998 it was 40.5 µM (inactive); in the assay with 786-0 it was 59.2 µM (inactive); with NCI-H460 it was 24.4 µM (inactive); in the assay with NCI-H23, 57.4 µM (inactive); in the assay on SF-268, 36.9 µM (inactive). Further, the results for the GI50 with ACHN, in the assay on U-251 and in the assay with TK-10 were 44.9 µM (inactive), 40.1 µM (inactive) and 88.5 µM (inactive), respectively.

Turning to `CCCN(CCCCC(NC(C)=O)C(=O)NCc1ccccc1)C(=O)NC` (configuration not stated), the GI50 was 95.7 µM (inactive) with SNB-75; > 100 µM (inactive) in the assay with HCT-116; > 100 µM (inactive) in the assay with SF-295; > 100 µM (inactive) with HOP-92; > 100 µM (inactive) with SN12C; > 100 µM (inactive) in the assay on OVCAR-8. Moreover, the GI50 in the assay on SK-MEL-28, in the assay on HCC 2998, with 786-0, in the assay with NCI-H460, in the assay on NCI-H23 and in the assay on EKVX was > 100 µM (inactive) each time. Moreover, the GI50 in the assay on SF-268, in the assay on ACHN, in the assay on U-251 and with TK-10 was > 100 µM (inactive) each time.

Regarding `BrC/C=C/C[P+](c1ccccc1)(c1ccccc1)c1ccccc1`, the GI50 in the assay on SNB-75 is 19.8 µM (inactive); with HCT-116, 3.97 µM (inactive); with SF-295, 13.1 µM (inactive); in the assay on HOP-92 it was 11.7 µM (inactive); with SN12C, 19.5 µM (inactive); in the assay on OVCAR-8 it was 3.91 µM (inactive). The GI50 in the assay with SK-MEL-28 was 33.3 µM (inactive); with HCC 2998 it was 35.2 µM (inactive); in the assay on 786-0 it was 10.3 µM (inactive); in the assay with NCI-H460, 7.46 µM (inactive); in the assay on NCI-H23, 32.3 µM (inactive); with SF-268 it was 15.7 µM (inactive). In addition, the GI50 with ACHN was 12.2 µM (inactive); with U-251 it was 24 µM (inactive); in the assay with TK-10, 11.6 µM (inactive).

As for `Cc1c(N)nc(C(CC(N)=O)NCC(N)C(N)=O)nc1C(=O)NC(C(=O)NC(C)C(O)C(C)C(=O)NC(C(=O)NCCc1nc(-c2nc(C(=O)NCCCNCCCCN)cs2)cs1)C(C)O)C(OC1OC(CO)C(O)C(O)C1OC1OC(CO)C(O)C(OC(N)=O)C1O)c1c[nH]cn1` (configuration not stated), the GI50 in the assay on SNB-75 is 0.202 µM (active); in the assay on HCT-116, 1.29 µM (inactive); in the assay with SF-295, 0.0731 µM (active); in the assay on HOP-92, 0.0724 µM (active); in the assay with SN12C, 3.56 µM (inactive); with OVCAR-8, > 10 µM (inactive). Also, the GI50 is > 10 µM (inactive) with SK-MEL-28; > 10 µM (inactive) in the assay with HCC 2998; 4.01 µM (inactive) in the assay on 786-0; 0.143 µM (active) in the assay with NCI-H460; 1.79 µM (inactive) in the assay with NCI-H23; > 10 µM (inactive) in the assay with EKVX. Besides, the GI50 with SF-268 is 1.18 µM (inactive); in the assay with ACHN, 0.00622 µM (active); in the assay on U-251, > 10 µM (inactive); in the assay with TK-10, > 10 µM (inactive).

With `Nc1n[n+](-c2ccccc2)no1`, the GI50 in the assay with HCT-116 is 28.3 µM (inactive); in the assay on SF-295, 33.8 µM (inactive); with HOP-92 it was 25.4 µM (inactive); in the assay on SN12C it was 82.4 µM (inactive); in the assay on OVCAR-8, 80 µM (inactive); in the assay on HCC 2998, 17.4 µM (inactive). The GI50 in the assay on 786-0 is 52.1 µM (inactive); in the assay on NCI-H460, 27.6 µM (inactive); with NCI-H23, 65.3 µM (inactive); in the assay on EKVX, > 100 µM (inactive); in the assay on SF-268, 42 µM (inactive); with ACHN, 8.49 µM (inactive). For the same molecule, the results for the GI50 with U-251 and with TK-10 were 51.4 µM (inactive) and > 100 µM (inactive), respectively.

`CN(C)CCC1(C2=CCCC2)CC/C(=C\c2ccccc2Cl)C1=O` (configuration not stated): the GI50 in the assay on HCT-116 is 8.41 µM (inactive); in the assay with SF-295, 14.6 µM (inactive); with HOP-92 it was 12.4 µM (inactive); in the assay with SN12C, 13.4 µM (inactive); with OVCAR-8, 15 µM (inactive); in the assay with SK-MEL-28 it was 13.1 µM (inactive). Moreover, the GI50 was 8.61 µM (inactive) with HCC 2998; 12.6 µM (inactive) with 786-0; 13.2 µM (inactive) with NCI-H460; 15.2 µM (inactive) in the assay on NCI-H23; 15.6 µM (inactive) with EKVX; 14.3 µM (inactive) in the assay with SF-268. In addition, the results for the GI50 with ACHN, with U-251 and in the assay on TK-10 were 17.3 µM (inactive), 12.6 µM (inactive) and 18.7 µM (inactive), respectively.
